Data: PubChem BioAssay AID330 (DTP/NCI, 2004)
“And” between values parts separate entries of the source, which are not always exact repeats. Identical values can stand only once. Inconclusive results and toxic doses are left out. The calls were made as follows: active = survival T/C of 150% or more; inactive = T/C below 125% in these data.

Test system: P388 leukemia ip, CD2F1 mice, survival T/C
Experiment: NCI In Vivo Anticancer Drug Screen. Data for tumor model P388 Leukemia (intraperitoneal) in CD2F1 (CDF1) mice
Conditions: endpoint: median survival time, higher = longer survival
How it was run: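 Mice carrying the transplanted tumor received test compound or vehicle. Survival was recorded in each group, and the value is the treated-group measurement divided by that of the vehicle-treated control group.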

[1] = dose: 50.0 mg/kg/injection, schedule: Q01DX009 (ip), vehicle: Klucel (hydroxypropylcellulose) (HPC)
[2] = dose: 100.0 mg/kg/injection, schedule: Q01DX009 (ip), vehicle: Klucel (hydroxypropylcellulose) (HPC)
[3] = dose: 25.0 mg/kg/injection, schedule: Q01DX009 (ip), vehicle: saline with Tween-80
[4] = dose: 50.0 mg/kg/injection, schedule: Q01DX009 (ip), vehicle: saline with Tween-80
[5] = dose: 100.0 mg/kg/injection, schedule: Q01DX009 (ip), vehicle: saline with Tween-80
[6] = dose: 200.0 mg/kg/injection, schedule: Q01DX009 (ip), vehicle: saline with Tween-80
[7] = dose: 200.0 mg/kg/injection, schedule: Q04DX003 (ip), vehicle: saline with Tween-80
[8] = dose: 50.0 mg/kg/injection, schedule: Q01DX005 (ip), vehicle: Klucel (hydroxypropylcellulose) (HPC)
[9] = dose: 100.0 mg/kg/injection, schedule: Q01DX005 (ip), vehicle: Klucel (hydroxypropylcellulose) (HPC)
[10] = dose: 200.0 mg/kg/injection, schedule: Q01DX005 (ip), vehicle: Klucel (hydroxypropylcellulose) (HPC)
[11] = dose: 60.0 mg/kg/injection, schedule: Q01DX005 (ip), vehicle: saline with Tween-80
[12] = dose: 400.0 mg/kg/injection, schedule: Q01DX009 (ip), vehicle: saline with Tween-80
[13] = dose: 100.0 mg/kg/injection, schedule: Q04DX002 (ip), vehicle: saline with Tween-80
[14] = dose: 50.0 mg/kg/injection, schedule: Q01DX005 (ip), vehicle: saline with Tween-80
[15] = dose: 100.0 mg/kg/injection, schedule: Q01DX005 (ip), vehicle: saline with Tween-80
[16] = dose: 200.0 mg/kg/injection, schedule: Q01DX005 (ip), vehicle: saline with Tween-80
[17] = dose: 12.5 mg/kg/injection, schedule: Q01DX005 (ip), vehicle: Klucel (hydroxypropylcellulose) (HPC)
[18] = dose: 25.0 mg/kg/injection, schedule: Q01DX005 (ip), vehicle: Klucel (hydroxypropylcellulose) (HPC)

Measured: T/C

Cc1cc(NC(=S)SCc2ccc3c(c2)OCO3)ccc1Cl
inactive: [1] 112 % of control | dose: 50.0 mg/kg/injection, schedule: Q01DX009 (ip), vehicle: suspension in saline 91 % of control | [2] 122 % of control | dose: 100.0 mg/kg/injection, schedule: Q01DX009 (ip), vehicle: suspension in saline 94 % of control | dose: 200.0 mg/kg/injection, schedule: Q01DX009 (ip), vehicle: Klucel (hydroxypropylcellulose) (HPC) 114 % of control | dose: 200.0 mg/kg/injection, schedule: Q01DX009 (ip), vehicle: suspension in saline 90 % of control

CN1CCC(=C(C#N)C#N)CC1
inactive: [3] 120 % of control | [4] 115 % of control

O=C(O)Cc1ccccc1C(=O)O.[Pb]
inactive: [3] 90 % of control | [4] 104 % of control | [5] 86 % of control

CCCCCSc1ncnc2nc[nH]c12
inactive: [4] 100 % of control | [5] 109 % of control | dose: 100.05 mg/kg/injection, schedule: Q04DX003 (ip), vehicle: saline with Tween-80 95 % of control | [6] 104 % of control | [7] 104 % of control

Cc1ccc2nc(N)nnc2c1
inactive: [1] 104 % of control | [2] 100 % of control

COC(=O)c1csccc1=O
inactive: [8] 112 % of control | [9] 97 % of control | [10] 95 % of control

CCCCCCCCCCCCCCCC1C(N)C(=O)N(C)N1C (stereo not given)
inactive: [4] 86 % of control | [5] 95 % of control

CC(=O)OCC1OC([S][Sb]([CH3])[CH3])C(OC(C)=O)C(OC(C)=O)C1OC(C)=O (stereo not given)
inactive: dose: 15.0 mg/kg/injection, schedule: Q01DX005 (ip), vehicle: saline with Tween-80 112 % of control | dose: 30.0 mg/kg/injection, schedule: Q01DX005 (ip), vehicle: saline with Tween-80 101 % of control | [11] 115 % of control

Cc1cccc(C)c1OC(=S)SSC(=S)Oc1c(C)cccc1C
inactive: dose: 100.0 mg/kg/injection, schedule: Q01DX001 (ip), vehicle: Klucel (hydroxypropylcellulose) (HPC) 94 % of control | dose: 200.0 mg/kg/injection, schedule: Q01DX001 (ip), vehicle: Klucel (hydroxypropylcellulose) (HPC) 87 % of control

CC(=O)OC1CC2CCC1(/C=C/C(=O)c1ccccc1)C2 (stereo not given)
inactive: [4] 100 % of control | [5] 100 % of control | [6] 113 % of control

C#CC1(OC(=O)Nc2cccc(Cl)c2)CCCCC1
inactive: dose: 12.5 mg/kg/injection, schedule: Q01DX009 (ip), vehicle: saline with Tween-80 91 % of control and 97 % of control | [3] 98 % of control and 110 % of control | [4] 102 % of control and 105 % of control and 90 % of control | [5] 106 % of control and 108 % of control | [6] 97 % of control | [12] 94 % of control

C=CC(Br)CCCBr (stereo not given)
inactive: dose: 12.5 mg/kg/injection, schedule: Q04DX002 (ip), vehicle: saline with Tween-80 106 % of control | dose: 25.0 mg/kg/injection, schedule: Q04DX002 (ip), vehicle: saline with Tween-80 112 % of control | dose: 50.0 mg/kg/injection, schedule: Q04DX002 (ip), vehicle: saline with Tween-80 101 % of control | [13] 104 % of control

Cc1ccc(NCCN(C)CC(C)O)c2c(=O)c3ccc(Cl)cc3sc12 (stereo not given)
inactive: [8] 102 % of control | [9] 101 % of control | [10] 95 % of control

O=C(O)Cc1csc(=S)n1Cc1ccccc1
inactive: [14] 100 % of control | [15] 102 % of control | [16] 90 % of control

CCC(O)(C(=O)O)c1cc[n+](Cc2cnc3ccccc3c2)cc1C (stereo not given)
inactive: [17] 96 % of control | [18] 86 % of control | [8] 100 % of control

CSc1c(C)c(C)nn1-c1ccccc1
inactive: [11] 104 % of control | dose: 120.0 mg/kg/injection, schedule: Q01DX005 (ip), vehicle: saline with Tween-80 111 % of control | dose: 240.0 mg/kg/injection, schedule: Q01DX005 (ip), vehicle: saline with Tween-80 104 % of control

Oc1ccc2ccccc2c1-c1c(OC(c2ccccc2)c2ccccc2)ccc2ccccc12
inactive: dose: 100.0 mg/kg/injection, schedule: Q04DX003 (ip), vehicle: saline with Tween-80 102 % of control | [7] 94 % of control | dose: 400.0 mg/kg/injection, schedule: Q04DX003 (ip), vehicle: saline with Tween-80 102 % of control

OCCSC(=S)Nc1ccc(Cl)c(Cl)c1
inactive: dose: 50.0 mg/kg/injection, schedule: Q01DX009 (ip), vehicle: saline 96 % of control | dose: 100.0 mg/kg/injection, schedule: Q01DX009 (ip), vehicle: saline 103 % of control

Cn1cc(NC(=O)c2cc(NC(=O)c3cc(NC=O)cn3C)cn2C)cc1C(=O)O
inactive: [17] 100 % of control | [18] 100 % of control | [8] 107 % of control

CC(=O)NC(Cc1ccc(F)cc1)C(=O)O (stereo not given)
inactive: [4] 101 % of control and 109 % of control | [5] 102 % of control and 109 % of control | [6] 107 % of control and 95 % of control | [12] 107 % of control and 113 % of control | dose: 600.0 mg/kg/injection, schedule: Q01DX009 (ip), vehicle: saline with Tween-80 112 % of control and 124 % of control

Nc1nc(=S)c2[nH]c(-c3ccccc3)nc2[nH]1
inactive: dose: 12.5 mg/kg/injection, schedule: Q01DX005 (ip), vehicle: other 106 % of control | dose: 25.0 mg/kg/injection, schedule: Q01DX005 (ip), vehicle: other 100 % of control | dose: 50.0 mg/kg/injection, schedule: Q01DX005 (ip), vehicle: other 102 % of control | dose: 100.0 mg/kg/injection, schedule: Q01DX005 (ip), vehicle: other 100 % of control

c1ccc(SCCOCCOCCSc2ccccn2)nc1
inactive: [18] 103 % of control | [8] 108 % of control | [9] 111 % of control

Nc1ncnc2c1ncn2C1OC(CO)C2OC(=S)OC21 (stereo not given)
inactive: [3] 96 % of control | [4] 101 % of control | [5] 100 % of control | [6] 100 % of control

CNCC1c2ccccc2CSc2c(OC)cccc21 (stereo not given)
inactive: dose: 6.25 mg/kg/injection, schedule: Q01DX005 (ip), vehicle: Klucel (hydroxypropylcellulose) (HPC) 101 % of control | [17] 98 % of control | [18] 98 % of control

COC(=O)/C=C1/Nc2c(n(C)c(=O)n(C)c2=O)NC1=O
inactive: dose: 100.0 mg/kg/injection, schedule: Q04DX003 (ip), vehicle: saline 107 % of control | dose: 200.0 mg/kg/injection, schedule: Q04DX003 (ip), vehicle: saline 94 % of control | dose: 400.0 mg/kg/injection, schedule: Q04DX003 (ip), vehicle: saline 99 % of control

CC(=O)OC1CCC2(C)CCC3C(OC(=O)C3(C)[Se]c3ccccc3)C2C1C (stereo not given)
inactive: [13] 91 % of control

CC1CCCC(C)N1C(=O)C(Cl)(Cl)Cl (stereo not given)
inactive: [14] 100 % of control | [15] 100 % of control | [16] 100 % of control

C=CC[P+](C)(c1ccccc1)c1ccccc1
inactive: dose: 0.78 mg/kg/injection, schedule: Q01DX009 (ip), vehicle: saline 94 % of control | dose: 1.56 mg/kg/injection, schedule: Q01DX009 (ip), vehicle: saline 97 % of control | dose: 3.13 mg/kg/injection, schedule: Q01DX009 (ip), vehicle: saline 106 % of control
